Where a name gives a salt, the structure may show the parent alone.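 96-well plates; 48 h exposure; 5 concentrations. Endpoints by linear interpolation between flanking doses. Not reached: highest tested concentration assigned. At the GI50, growth is halved.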 Activity calls are given as the source filed them. Cut-off read from the data, not from the text of the source: active = GI50 up to about 1.1 µM and inactive = higher.
How the values were obtained:
Test in all cases: inhibition of tumour cell growth, NCI panel, 48 h
NCI-H522 = test system: NCI-H522
OVCAR-4 = test system: OVCAR-4
MOLT-4 = test system: MOLT-4
LOX IMVI = test system: LOX IMVI
HOP-92 = test system: HOP-92
Malme-3M = test system: Malme-3M
K562 = test system: K562
UACC-62 = test system: UACC-62
HCC 2998 = test system: HCC 2998
HOP-62 = test system: HOP-62
A549 = test system: A549
OVCAR-5 = test system: OVCAR-5
NCI-H226 = test system: NCI-H226
COLO 205 = test system: COLO 205
KM12 = test system: KM12
TK-10 = test system: TK-10
HCT-15 = test system: HCT-15
MDA-N = test system: MDA-N
OVCAR-8 = test system: OVCAR-8
SF-539 = test system: SF-539

SMILES | GI50 (NCI-H522) | GI50 (OVCAR-4) | GI50 (MOLT-4) | GI50 (LOX IMVI) | GI50 (HOP-92) | GI50 (Malme-3M) | GI50 (K562) | GI50 (UACC-62) | GI50 (HCC 2998) | GI50 (HOP-62) | GI50 (A549) | GI50 (OVCAR-5) | GI50 (NCI-H226) | GI50 (COLO 205) | GI50 (KM12) | GI50 (TK-10) | GI50 (HCT-15) [µM] | GI50 (MDA-N) | GI50 (OVCAR-8) | GI50 (SF-539)
Cc1ccccc1OC(C)C(=O)NN1C(=O)CC(=O)NC1=S (stereo not given) | > 100 µM (inactive) | 63.2 µM (inactive) | 94.8 µM (inactive) | > 100 µM (inactive) | > 100 µM (inactive) | > 100 µM (inactive) | > 100 µM (inactive) | 80.5 µM (inactive) | > 100 µM (inactive) | > 100 µM (inactive) | 68.9 µM (inactive) | > 100 µM (inactive) | 70.5 µM (inactive) | > 100 µM (inactive) | 92 µM (inactive) | > 100 µM (inactive) | > 100 | > 100 µM (inactive) | > 100 µM (inactive) | > 100 µM (inactive)
C=C[C@@]1(C)CC(=O)[C@]2(O)[C@@]3(C)[C@@H](O)CCC(C)(C)[C@@H]3[C@H](O)[C@@H](OC(C)=O)[C@@]2(C)O1 | > 100 µM (inactive) | > 100 µM (inactive) | 30.2 µM (inactive) | > 100 µM (inactive) | > 100 µM (inactive) | > 100 µM (inactive) | > 100 µM (inactive) | > 100 µM (inactive) | > 100 µM (inactive) | > 100 µM (inactive) | > 100 µM (inactive) | 72.6 µM (inactive) | > 100 µM (inactive) | > 100 µM (inactive) | 1.7 µM (inactive) | > 100 µM (inactive) | > 100 | > 100 µM (inactive) | > 100 µM (inactive) | > 100 µM (inactive)
CCOP(=O)(OCC)C(Nc1ccc(F)cc1)c1cccc([N+](=O)[O-])c1 (stereo not given) | 63.1 µM (inactive) | 57.4 µM (inactive) | 37.2 µM (inactive) | > 100 µM (inactive) | 37.9 µM (inactive) | 83.8 µM (inactive) | 38.9 µM (inactive) | 54.8 µM (inactive) | 71.6 µM (inactive) | > 100 µM (inactive) | 58.7 µM (inactive) | > 100 µM (inactive) | > 100 µM (inactive) | 70.5 µM (inactive) | 94 µM (inactive) | > 100 µM (inactive) | 83.8 | > 100 µM (inactive) | 97.9 µM (inactive) | > 100 µM (inactive)
Cc1cc(C)c(C[C@H]2COC(=O)[C@]2(O)Cc2c(C)cc(C)cc2C)c(C)c1 | 18.7 µM (inactive) | 12.9 µM (inactive) | 26.7 µM (inactive) | 17.8 µM (inactive) | 14.2 µM (inactive) | 13.9 µM (inactive) | 25.2 µM (inactive) | 13.7 µM (inactive) | 13.7 µM (inactive) | 19.2 µM (inactive) | 15.7 µM (inactive) | 17.1 µM (inactive) | 17 µM (inactive) | 18.7 µM (inactive) | 18.3 µM (inactive) | 21.6 µM (inactive) | 17.3 | 19.8 µM (inactive) | 23.6 µM (inactive) | 23.9 µM (inactive)
O=c1ccn([C@@H]2C[C@H]2CO)c(=O)[nH]1 | > 100 µM (inactive) | > 100 µM (inactive) | > 100 µM (inactive) | > 100 µM (inactive) | > 100 µM (inactive) | > 100 µM (inactive) | > 100 µM (inactive) | > 100 µM (inactive) | > 100 µM (inactive) | > 100 µM (inactive) | > 100 µM (inactive) | > 100 µM (inactive) | > 100 µM (inactive) | > 100 µM (inactive) | > 100 µM (inactive) | > 100 µM (inactive) | > 100 | > 100 µM (inactive) | > 100 µM (inactive) | > 100 µM (inactive)
O=C(c1ccccc1)N1CCN(C(=S)NC2CCCCC2)C1=S | 15.8 µM (inactive) | 18.9 µM (inactive) | 17.5 µM (inactive) | 16 µM (inactive) | 15.5 µM (inactive) | 15.5 µM (inactive) | 33.3 µM (inactive) | 19.3 µM (inactive) | 16.4 µM (inactive) | 18 µM (inactive) | 13.4 µM (inactive) | 21.7 µM (inactive) | 14.7 µM (inactive) | 18.5 µM (inactive) | 16 µM (inactive) | 25.8 µM (inactive) | 15.8 | 19.4 µM (inactive) | 17 µM (inactive) | 13.5 µM (inactive)
NCCSSCCN [CYSTAMINE HYDROCHLORIDE] | > 100 µM (inactive) | > 100 µM (inactive) | > 100 µM (inactive) | > 100 µM (inactive) | > 100 µM (inactive) | > 100 µM (inactive) | > 100 µM (inactive) | > 100 µM (inactive) | > 100 µM (inactive) | > 100 µM (inactive) | > 100 µM (inactive) | > 100 µM (inactive) | > 100 µM (inactive) | > 100 µM (inactive) | > 100 µM (inactive) | > 100 µM (inactive) | > 100 | > 100 µM (inactive) | > 100 µM (inactive) | > 100 µM (inactive)
